Experimental data from US20260234159A1, “SMALL MOLECULE TREATMENT OF FATTY LIVER DISEASE AND HCC” (SCANDIEDGE THERAPEUTICS AB, priority 2023, published 2026).

Key:
HepG2 cells [1] = experiment: Wound healing assay; assay type: cell-based; conditions: Homo sapiens, HepG2, 96 h, day 4, untreated 100% wound closure, read-out: wound healing delayed by
Outline: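 HepG2 monolayers grown to 95-100% confluence were scratched with a pipette tip and treated with compounds at 1 μM. Wounds were imaged from day 0 until closure in the control group, and wound area was measured from the images.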

[2] = In vivo toxicological study in rats: haematology; design: species or system rats of the Wistar strain
Procedure: Forty-two male and forty-two female rats of the Wistar strain were allocated to the study. Three groups of three males and three females were given doses of 30, 100 and 300 mg/kg of target compounds (Table 8). The vehicle was 1.5 w/w % HPMC, 1.5 w/w % PS80 in 10 mM PBS, pH 7 and dose volume were 5 mL/kg. The animals were acclimatised at least 14 day prior to the study and exposed to a 12 hours light, 12 hours dark light cycle. The formulations were administered via oral gavage. Administration occurred once daily in the morning for seven consecutive days. Blood for scheduled haematology and plasma chemistry were taken at necropsy. For plasma chemistry, 0.6 ml blood (lithium heparin) per animal and for haematology, 0.5 ml blood (K2EDTA) per animal. The blood and plasma were analysed using Exigo analyzer and Vetscan equipment. Blood was analysed within 60 min of sampling. On the morning of analysis, the Exigo analyzer was checked against a reference sample provided by the manufacturer, and a control sample analysis cycle was performed (Table 9).

HepG2 cells [3] = experiment: Mitochondrial membrane potential assay (TMRE); assay type: cell-based, human; conditions: 10 μM, one day
Outline: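 HepG2 cells treated with compounds at the chosen concentration and time, then assayed with kits for TMRE, autophagy, DCFDA ROS or lipid peroxidation. Fluorescence intensity measured from ROI in images or by microplate reader in triplicate (GFP Ex480/Em530 nm, RFP Ex549/Em574 nm).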

[4] = In vivo toxicological study in rats: clinical observations and body weight; conditions: 300 mg/kg oral administration
Procedure: Forty-two male and forty-two female rats of the Wistar strain were allocated to the study. Three groups of three males and three females were given doses of 30, 100 and 300 mg/kg of target compounds (Table 8). The vehicle was 1.5 w/w % HPMC, 1.5 w/w % PS80 in 10 mM PBS, pH 7 and dose volume were 5 mL/kg.
The animals were acclimatised at least 14 day prior to the study and exposed to a 12 hours light, 12 hours dark light cycle. The formulations were administered via oral gavage. Administration occurred once daily in the morning for seven consecutive days.
A check of animal health and welfare status was done at least once on working days and weekend days.
Body weights were recorded the week before and within 24 hours before start of dosing, on Day 3 and on necropsy Day 8.

[5] = female, 30 mg/kg oral daily 7 d
[6] = female, 100 mg/kg oral daily 7 d
[7] = female, 300 mg/kg oral daily 7 d

With `N#Cc1c(NC(=O)c2cccc3ccccc23)sc2c1CCN(C(=O)Nc1ccccc1OC(F)(F)F)C2` [PKL-A159] the inhibition at 1 µM (HepG2 cells [1]) was 35.5%, the GRAN [2, 5] was 0.80 10^9/l and the HCT [2, 5] was 40.3%. For the same compound, the HGB [2, 5] was 14.4 g/dL, the LYM [2, 5] was 4.9 10^9/l and the MCH [2, 5] was 19.4 pg. The MCHC [2, 5] was 35.7 g/dL, the MCV [2, 5] was 54.5 fL and the MONO [2, 5] was 0.13 10^9/l. For the same compound, the PLT [2, 5] was 1028 10^9/l, the RBC [2, 5] was 7.39 10^12/l and the RDW % [2, 5] was 14.1%. For the same compound, the WBC [2, 5] was 5.9 10^9/l, the GRAN [2, 6] was 0.77 10^9/l and the HCT [2, 6] was 41.2%. The HGB [2, 6] was 14.5 g/dL, the LYM [2, 6] was 5.8 10^9/l and the MCH [2, 6] was 18.9 pg. The MCHC [2, 6] was 35.2 g/dL, the MCV [2, 6] was 53.8 fL and the MONO [2, 6] was 0.10 10^9/l. For the same compound, the PLT [2, 6] was 994 10^9/l, the RBC [2, 6] was 7.66 10^12/l and the RDW % [2, 6] was 14.6%. For the same compound, the WBC [2, 6] was 6.7 10^9/l, the GRAN [2, 7] was 0.93 10^9/l and the HCT [2, 7] was 41.1%. The HGB [2, 7] was 14.5 g/dL, the LYM [2, 7] was 5.3 10^9/l and the MCH [2, 7] was 19.4 pg. For the same compound, the MCHC [2, 7] was 35.2 g/dL, the MCV [2, 7] was 55.2 fL and the MONO [2, 7] was 0.17 10^9/l. The PLT [2, 7] was 808 10^9/l, the RBC [2, 7] was 7.45 10^12/l and the RDW % [2, 7] was 14.4%. For the same compound, the WBC [2, 7] was 6.4 10^9/l, the GRAN ([2]; male, 30 mg/kg oral daily 7 d) was 1.03 10^9/l and the HCT ([2]; male, 30 mg/kg oral daily 7 d) was 40.9%. For the same compound, the HGB ([2]; male, 30 mg/kg oral daily 7 d) was 14.5 g/dL, the LYM ([2]; male, 30 mg/kg oral daily 7 d) was 2.8 10^9/l and the MCH ([2]; male, 30 mg/kg oral daily 7 d) was 19.9 pg. The MCHC ([2]; male, 30 mg/kg oral daily 7 d) was 35.4 g/dL, the MCV ([2]; male, 30 mg/kg oral daily 7 d) was 56.3 fL and the MONO ([2]; male, 30 mg/kg oral daily 7 d) was 0.10 10^9/l. For the same compound, the PLT ([2]; male, 30 mg/kg oral daily 7 d) was 1117 10^9/l, the RBC ([2]; male, 30 mg/kg oral daily 7 d) was 7.26 10^12/l and the RDW % ([2]; male, 30 mg/kg oral daily 7 d) was 15.1%. The WBC ([2]; male, 30 mg/kg oral daily 7 d) was 3.9 10^9/l, the GRAN ([2]; male, 100 mg/kg oral daily 7 d) was 1.43 10^9/l and the HCT ([2]; male, 100 mg/kg oral daily 7 d) was 42.4%. The HGB ([2]; male, 100 mg/kg oral daily 7 d) was 14.9 g/dL, the LYM ([2]; male, 100 mg/kg oral daily 7 d) was 7.1 10^9/l and the MCH ([2]; male, 100 mg/kg oral daily 7 d) was 19.9 pg. The MCHC ([2]; male, 100 mg/kg oral daily 7 d) was 35.3 g/dL, the MCV ([2]; male, 100 mg/kg oral daily 7 d) was 56.4 fL and the MONO ([2]; male, 100 mg/kg oral daily 7 d) was 0.23 10^9/l. For the same compound, the PLT ([2]; male, 100 mg/kg oral daily 7 d) was 974 10^9/l, the RBC ([2]; male, 100 mg/kg oral daily 7 d) was 7.51 10^12/l and the RDW % ([2]; male, 100 mg/kg oral daily 7 d) was 15.4%. For the same compound, the WBC ([2]; male, 100 mg/kg oral daily 7 d) was 8.7 10^9/l, the GRAN ([2]; male, 300 mg/kg oral daily 7 d) was 1.00 10^9/l and the HCT ([2]; male, 300 mg/kg oral daily 7 d) was 42.4%. The HGB ([2]; male, 300 mg/kg oral daily 7 d) was 14.8 g/dL, the LYM ([2]; male, 300 mg/kg oral daily 7 d) was 4.6 10^9/l and the MCH ([2]; male, 300 mg/kg oral daily 7 d) was 19.6 pg. The MCHC ([2]; male, 300 mg/kg oral daily 7 d) was 35.1 g/dL, the MCV ([2]; male, 300 mg/kg oral daily 7 d) was 55.8 fL and the MONO ([2]; male, 300 mg/kg oral daily 7 d) was 0.10 10^9/l. For the same compound, the PLT ([2]; male, 300 mg/kg oral daily 7 d) was 1200 10^9/l, the RBC ([2]; male, 300 mg/kg oral daily 7 d) was 7.59 10^12/l and the RDW % ([2]; male, 300 mg/kg oral daily 7 d) was 15.3%. The WBC ([2]; male, 300 mg/kg oral daily 7 d) was 5.7 10^9/l, the mitochondrial membrane potential (HepG2 cells [3]) was “significantly decreased” and the “tolerability (adverse clinical signs, body weight, clinical pathology parameters)” value [4] was “well tolerated”.
